Measured values published in patent US20250346601A1, “HETEROCYCLIC COMPOUNDS FOR THE PREVENTION AND THERAPY OF CIRCADIAN RHYTHM DISORDERS” (UNIVERZITA PALACKEHO V OLOMOUCI, priority 2022, published 2025).

How the values were obtained:
[1] = system: U2OS line transduced with the Bmal 1-Luc reporter; experiment: Period of the circadian rhythm in U2OS cells with Bmal1-Luc reporter (luminescence, cosinor analysis); type: cell-based, Human; conditions: for Period length ± standard error of the mean (expressed relative to control) at the indicated concentration: U2OS, DMSO control = 1.00
Procedure: Human osteosarcoma U2OS cells were grown in standard DMEM medium with 10% fetal bovine serum. U2OS cells were transduced with lentiviral particles containing a Bmall-Luc fusion reporter and selected under Blasticidin. The cell line was clonally expanded and a single monoclonal cell line was used for further experiments. Cells were cultured in a 384-well plate in growth medium to 90+% confluence. Test compound or vehicle (DMSO) was applied to recording medium with 100 U/ml penicillin, 100 ug/ml streptomycin, 1x GlutaMAX, 10% fetal bovine serum, and 0.1 mM Luciferin-EF. Luminescence was recorded every hour for the next 144 hours. Circadian rhythm analysis was performed using cosinor analysis.
The length of the period was expressed relative to the period of cells affected only by DMSO vehicle (their period is therefore 1.00). […] The overall effect on circadian oscillations unequivocally proves that the compounds of formula I can be also used to temporally modulate the concentration and activity of not only BMAL1, but also other components of the oscillator including the critical components PER2, CRY and CLOCK in time, as these are an essential part of the mechanism generating the rhythmic expression of the luminescent reporter used. The concentration and level of other proteins, whose rhythmic expression is controlled by an oscillator in the brain and peripheral tissues (so-called clock-controlled genes), are also necessarily affected. The influence of the compounds of formula I on the activity of oscillator components and subordinate genes also means influencing the physiological processes of the cell controlled by these genes and proteins. N^6-furfuryladenine was used as a reference compound. […] The ability to shift the phase of the circadian cycle can be seen in FIG. 2.

[2] = system: NIH3T3 line transfected with the Per2-Luc reporter; experiment: Period of the circadian rhythm in NIH3T3 fibroblasts with Per2-Luc reporter (luminescence, cosinor analysis); type: cell-based, mouse; conditions: for Period length ± standard error of the mean (expressed relative to the control) at the indicated concentration: NIH3T3, DMSO control = 1.00
Procedure: NIH3T3 mouse embryonic fibroblasts were grown in standard DMEM with 10% fetal bovine serum. NIH3T3 cells were transfected with 1 μg of Per2-Luc reporter using GeneJuice and selected under hygromycin. The cell line was clonally expanded and a single monoclonal cell line was used for further experiments. Cells were cultured in a 96-well plate in growth medium to 90+% confluence. Test compound or vehicle (DMSO) was applied to recording medium with 100 U/ml penicillin, 100 μg/ml streptomycin, 1x GlutaMAX, 10% fetal calf serum and 0.1 mM Luciferin-EF (Promega Madison, WI, USA). Luminescence was recorded every hour for the next 144 hours. Circadian rhythm analysis was performed using cosinor analysis. Period length was expressed relative to the period of cells affected only by DMSO vehicle (their period length is therefore 1.00).

c1coc(CNc2ncnc3c2ncn3C2CCCC2)c1 [Compound 1]
Period length ± standard error of the mean (expressed relative to control) at the indicated concentration ([1]; 10 μM): 10 μM: 1.19 ± 0.02
Period length ± standard error of the mean (expressed relative to the control) at the indicated concentration ([2]; 10 μM): 1.17 ± 0.01
Period length ± standard error of the mean (expressed relative to the control) at the indicated concentration ([2]; 50 μM): 1.54 ± 0.01

Clc1nc(NCc2ccco2)c2ncn(C3CCCC3)c2n1 [Compound 6]
Period length ± standard error of the mean (expressed relative to control) at the indicated concentration ([1]; 5 μM): 5 μM: 1.23 ± 0.03
Period length ± standard error of the mean (expressed relative to the control) at the indicated concentration ([2]; 10 μM): 10 μM: 1.27 ± 0.01

Clc1nc(NCc2ccco2)c2ncn(C3CCOCC3)c2n1 [Compound 10]
Period length ± standard error of the mean (expressed relative to control) at the indicated concentration ([1]; 10 μM): 10 μM: 1.09 ± 0.01
Period length ± standard error of the mean (expressed relative to the control) at the indicated concentration ([2]; 10 μM): 10 μM: 1.14 ± 0.01

CN(C)c1nc(NCc2ccco2)c2ncn(C3CCCC3)c2n1 [Compound 15, 9-cyclopentyl-N^6-(furan-2-ylmethyl)-N^2,N^2-dimethyl-9H-purine-2,6-diamine]
Period length ± standard error of the mean (expressed relative to control) at the indicated concentration ([1]; 1 μM): 1.05 ± 0.01
Period length ± standard error of the mean (expressed relative to control) at the indicated concentration ([1]; 4 μM): 1.15 ± 0.01
Period length ± standard error of the mean (expressed relative to the control) at the indicated concentration ([2]; 0.83 μM): 1.08 ± 0.05
Period length ± standard error of the mean (expressed relative to the control) at the indicated concentration ([2]; 50 μM): 1.56 ± 0.07

CN(CCN)c1nc(NCc2ccco2)c2ncn(C3CCCC3)c2n1 [Compound 16]
Period length ± standard error of the mean (expressed relative to control) at the indicated concentration ([1]; 10 μM): 1.26 ± 0.07
Period length ± standard error of the mean (expressed relative to control) at the indicated concentration ([1]; 20 μM): 1.95 ± 0.14
Period length ± standard error of the mean (expressed relative to the control) at the indicated concentration ([2]; 0.83 μM): 1.05 ± 0.01
Period length ± standard error of the mean (expressed relative to the control) at the indicated concentration ([2]; 10 μM): 2.02 ± 0.06

CN(C)CCNc1nc(NCc2ccco2)c2ncn(C3CCCC3)c2n1 [Compound 17]
Period length ± standard error of the mean (expressed relative to control) at the indicated concentration ([1]; 10 μM): 10 μM: 1.48 ± 0.28
Period length ± standard error of the mean (expressed relative to the control) at the indicated concentration ([2]; 10 μM): 1.71 ± 0.04
Period length ± standard error of the mean (expressed relative to the control) at the indicated concentration ([2]; 50 μM): 2.17 ± 0.1

NCCNc1nc(NCc2ccco2)c2ncn(C3CCCC3)c2n1 [Compound 18]
Period length ± standard error of the mean (expressed relative to control) at the indicated concentration ([1]; 1 μM): 1 μM: 1.16 ± 0.03
Period length ± standard error of the mean (expressed relative to the control) at the indicated concentration ([2]; 10 μM): 1.19 ± 0
Period length ± standard error of the mean (expressed relative to the control) at the indicated concentration ([2]; 50 μM): 2.19 ± 0.35

c1coc(CNc2nc(N3CCOCC3)nc3c2ncn3C2CCCC2)c1 [Compound 20]
Period length ± standard error of the mean (expressed relative to control) at the indicated concentration ([1]; 1 μM): 1.09 ± 0.01
Period length ± standard error of the mean (expressed relative to control) at the indicated concentration ([1]; 4 μM): 1.67 ± 0.33
Period length ± standard error of the mean (expressed relative to the control) at the indicated concentration ([2]; 0.83 μM): 1.04 ± 0.01
Period length ± standard error of the mean (expressed relative to the control) at the indicated concentration ([2]; 50 μM): 1.55 ± 0.03

CNc1nc(NCc2ccco2)c2ncn(C3CCCO3)c2n1 (centres unmarked) [Compound 22]
Period length ± standard error of the mean (expressed relative to control) at the indicated concentration ([1]; 10 μM): 10 μM: 1.06 ± 0
Period length ± standard error of the mean (expressed relative to the control) at the indicated concentration ([2]; 50 μM): 50 μM: 1.22 ± 0.02

CN(C)c1nc(NCc2ccco2)c2ncn(C3CCCO3)c2n1 (centres unmarked) [Compound 23]
Period length ± standard error of the mean (expressed relative to control) at the indicated concentration ([1]; 10 μM): 10 μM: 1.08 ± 0.01
Period length ± standard error of the mean (expressed relative to the control) at the indicated concentration ([2]; 10 μM): 1.07 ± 0.01
Period length ± standard error of the mean (expressed relative to the control) at the indicated concentration ([2]; 50 μM): 1.36 ± 0.04

Cc1ccc(CNc2nc(N(C)C)nc3c2ncn3C2CCCO2)o1 (centres unmarked) [Compound 24]
Period length ± standard error of the mean (expressed relative to control) at the indicated concentration ([1]; 10 μM): 1.03 ± 0
Period length ± standard error of the mean (expressed relative to control) at the indicated concentration ([1]; 20 μM): 1.09 ± 0.01
Period length ± standard error of the mean (expressed relative to the control) at the indicated concentration ([2]; 50 μM): 50 μM: 1.24 ± 0.07

CNc1nc(NCc2ccco2)c2ncn(C3CCCCO3)c2n1 (centres unmarked) [Compound 33]
Period length ± standard error of the mean (expressed relative to control) at the indicated concentration ([1]; 5 μM): 5 μM: 1.04 ± 0
Period length ± standard error of the mean (expressed relative to the control) at the indicated concentration ([2]; 50 μM): 50 μM: 1.18 ± 0.02

CN(C)c1nc(NCc2ccco2)c2ncn(C3CCCCO3)c2n1 (centres unmarked) [Compound 34]
Period length ± standard error of the mean (expressed relative to control) at the indicated concentration ([1]; 10 μM): 1.12 ± 0.01
Period length ± standard error of the mean (expressed relative to control) at the indicated concentration ([1]; 20 μM): 1.25 ± 0.03
Period length ± standard error of the mean (expressed relative to control) at the indicated concentration ([1]; 50 μM): 50 μM: 1.73 ± 0.6
Period length ± standard error of the mean (expressed relative to the control) at the indicated concentration ([2]; 50 μM): 50 μM: 2.3 ± 0.03

CCCNc1nc(NCc2ccco2)c2ncn(C3CCCCO3)c2n1 (centres unmarked) [Compound 35]
Period length ± standard error of the mean (expressed relative to control) at the indicated concentration ([1]; 10 μM): 10 μM: 1.05 ± 0.01
Period length ± standard error of the mean (expressed relative to the control) at the indicated concentration ([2]; 50 μM): 50 μM: 1.38 ± 0.09

c1coc(CNc2nc(NCc3ccco3)c3ncn(C4CCCCO4)c3n2)c1 (centres unmarked) [Compound 38]
Period length ± standard error of the mean (expressed relative to control) at the indicated concentration ([1]; 10 μM): 10 μM: 1.1 ± 0.02
Period length ± standard error of the mean (expressed relative to the control) at the indicated concentration ([2]; 50 μM): 50 μM: 1.22 ± 0.06

CN(C)CCNc1nc(NCc2ccco2)c2ncn(C3CCCCO3)c2n1 (centres unmarked) [Compound 44]
Period length ± standard error of the mean (expressed relative to control) at the indicated concentration ([1]; 1 μM): 1.05 ± 0.01
Period length ± standard error of the mean (expressed relative to control) at the indicated concentration ([1]; 5 μM): 1.28 ± 0.02
Period length ± standard error of the mean (expressed relative to the control) at the indicated concentration ([2]; 50 μM): 50 μM: 1.72 ± 0.04

OCCNc1nc(NCc2ccco2)c2ncn(C3CCCCO3)c2n1 (centres unmarked) [Compound 45, 2-({6-[(furan-2-ylmethyl)amino]-9-(tetrahydro-2H-pyran-2-yl)-9H-purin-2-yl}amino)ethan-1-ol]
Period length ± standard error of the mean (expressed relative to control) at the indicated concentration ([1]; 20 μM): 20 μM: 1.04 ± 0.01
Period length ± standard error of the mean (expressed relative to the control) at the indicated concentration ([2]; 50 μM): 50 μM: 1.32 ± 0.01

COCCCNc1nc(NCc2ccco2)c2ncn(C3CCCCO3)c2n1 (centres unmarked) [Compound 46]
Period length ± standard error of the mean (expressed relative to control) at the indicated concentration ([1]; 20 μM): 20 μM: 1.05 ± 0.01
Period length ± standard error of the mean (expressed relative to the control) at the indicated concentration ([2]; 50 μM): 50 μM: 1.27 ± 0.04

CNc1nc(NCc2ccc(C)o2)c2ncn(C3CCCCO3)c2n1 (centres unmarked) [Compound 50]
Period length ± standard error of the mean (expressed relative to control) at the indicated concentration ([1]; 10 μM): 1.11 ± 0.01
Period length ± standard error of the mean (expressed relative to control) at the indicated concentration ([1]; 20 μM): 1.14 ± 0.02
Period length ± standard error of the mean (expressed relative to the control) at the indicated concentration ([2]; 50 μM): 50 μM: 1.6 ± 0.02

CNc1nc(NCc2ccco2)c2ncn(C3CCCCCO3)c2n1 (centres unmarked) [Compound 60]
Period length ± standard error of the mean (expressed relative to control) at the indicated concentration ([1]; 5 μM): 1.04 ± 0
Period length ± standard error of the mean (expressed relative to control) at the indicated concentration ([1]; 20 μM): 1.15 ± 0.01
Period length ± standard error of the mean (expressed relative to the control) at the indicated concentration ([2]; 50 μM): 50 μM: 1.42 ± 0.04

CC(C)OCCn1cnc2c(NCc3ccco3)ncnc21 [N-(furan-2-ylmethyl)-9-(2-isopropoxyethyl)-9H-purin-6-amine, reference compound]
Period length ± standard error of the mean (expressed relative to control) at the indicated concentration ([1]; 50 μM): 50 μM: 1.01 ± 0.01
Period length ± standard error of the mean (expressed relative to the control) at the indicated concentration ([2]; 50 μM): 50 μM: 0.95 ± 0.02

COCCCn1cnc2c(NCc3ccco3)ncnc21 [N-(furan-2-ylmethyl)-9-(3-methoxypropyl)-9H-purin-6-amine, reference compound]
Period length ± standard error of the mean (expressed relative to control) at the indicated concentration ([1]; 50 μM): 50 μM: 0.99 ± 0.01
Period length ± standard error of the mean (expressed relative to the control) at the indicated concentration ([2]; 50 μM): 50 μM: 0.93 ± 0

COCCCCn1cnc2c(NCc3ccco3)ncnc21 [N-(furan-2-ylmethyl)-9-(4-methoxybutyl)-9H-purin-6-amine, reference compound]
Period length ± standard error of the mean (expressed relative to control) at the indicated concentration ([1]; 50 μM): 50 μM: 1 ± 0.01
Period length ± standard error of the mean (expressed relative to the control) at the indicated concentration ([2]; 50 μM): 50 μM: 0.97 ± 0.03

COCn1cnc2c(NCc3ccco3)ncnc21 [N-(furan-2-ylmethyl)-9-(methoxymethyl)-9H-purin-6-amine, reference compound]
Period length ± standard error of the mean (expressed relative to control) at the indicated concentration ([1]; 50 μM): 50 μM: 1.01 ± 0.01
Period length ± standard error of the mean (expressed relative to the control) at the indicated concentration ([2]; 50 μM): 50 μM: 0.96 ± 0.02

c1coc(CNc2ncnc3nc[nH]c23)c1 [N^6-furfuryladenine, reference compound]
Period length ± standard error of the mean (expressed relative to control) at the indicated concentration ([1]; 20 μM): 20 μM: 1.02 ± 0.01
Effect on the period of the circadian rhythm (in words) ([1]; U2OS Bmal1-Luc): minimal effect
Period length ± standard error of the mean (expressed relative to the control) at the indicated concentration ([2]; 50 μM): 50 μM: 1.06 ± 0.02
Effect on the period of the circadian rhythm (in words) ([2]; NIH3T3 Per2-Luc): much smaller effect
